The species named for test [1] is Bos taurus. In words: Inhibition of bovine hyaluronidase up to 200 uM at pH 5.0.
Test [2] has as its system Streptococcus agalactiae. In words: Inhibition of Streptococcus agalactiae 4755 hyaluronidase at 160 uM at pH 5.0.
The subject of test [3] is Streptococcus agalactiae. In words: Inhibition of Streptococcus agalactiae 4755 hyaluronidase at 190 uM at pH 5.0.
Test [4] is described as follows: (§1) Inhibition of bovine hyaluronidase at pH 5.0. Set-up: species or system Bos taurus.
A short description of test [5]: Inhibition of Streptococcus agalactiae 4755 hyaluronidase at pH 5.0.
The species entered for test [6] is Bos taurus. The description is as §1.
Test [7] has as its system Streptococcus agalactiae. In words: Inhibition of Streptococcus agalactiae 4755 hyaluronidase at 2000 uM at pH 5.0.
Test [8] is filed under the species Bos taurus. In words: Inhibition of bovine hyaluronidase up to 13 mM at pH 5.0.
In test [9] the test system is Streptococcus agalactiae. In words: Inhibition of Streptococcus agalactiae 4755 hyaluronidase at 1100 uM at pH 5.0.
For test [10], the species on record is Bos taurus. In words: Inhibition of bovine hyaluronidase up to 1.1 mM at pH 5.0.
Test [11] in a line: Inhibition of Streptococcus pneumoniae hyaluronidase.
For test [12], the species on record is Bos taurus. In words: Inhibition of bovine hyaluronidase up to 100 mM at pH 5.0.
Test [13] concerns Streptococcus agalactiae. In words: Inhibition of Streptococcus agalactiae 4755 hyaluronidase upto 13 mM at pH 5.0.
Test [14] concerns Streptococcus agalactiae. In words: Inhibition of Streptococcus agalactiae 4755 hyaluronidase upto 200 uM at pH 5.0.
The species named for test [15] is Bos taurus. In words: Inhibition of bovine hyaluronidase at 1430 uM.

SMILES strings stand for the structures. The source made the active and inactive calls. The calls are words filed in the database; no cut-off is given here.

By inhibition is commonly meant the share of the control response that was lost under treatment. The low end stands for a response near the control, the high end for a response far below the control. By IC50 is commonly meant the point on the concentration scale where inhibition reaches its midpoint. A lower IC50 goes with higher potency.

For the compound `CCCCCCCCCCCCCCCC(=O)OC[C@H](O)[C@H]1OC(=O)C(OC)=C1OC`, in [1], the outcome was inactive. This compound displayed an inhibition in [2] of 5%.

Compound `CCCCCCCCCCCCCCCC(=O)OC[C@H](O)[C@H]1OC(=O)C2=C1OCCO2` displayed an inhibition in [3] of 32%. Further, the result in [1] was inactive.

For `O=C(CCCCCOc1ccc(-c2ccccc2)cc1)OC[C@H](O)[C@H]1OC(=O)C(O)=C1O`, the half-inhibitory concentration (IC50) in [4] is 188 µM; in [5], 61 µM.

With `CCCCCCCCCCCCC(=O)OC[C@H](O)[C@H]1OC(=O)C(O)=C1O`, the IC50 is 96 µM in test [4] and 14.3 µM in test [5].

Turning to `CCCCCCCCCC(=O)OC[C@H](O)[C@H]1OC(=O)C(O)=C1O`, the values for the IC50 in [4] and in [5] were 1380 µM and 102 µM, respectively.

Turning to `CCc1ccc(OCCCCCC(=O)OC[C@H](O)[C@H]2OC(=O)C(O)=C2O)cc1`, in test [6], the result was inactive. The IC50 in [5] was determined as 280 µM.

The compound `O=C1O[C@H]([C@@H](O)CO)C2=C1OCCO2` displayed an inhibition in test [7] of 24%. The outcome in test [8] was inactive.

In the case of `CCCCCCCCCCCCCCCC(=O)OC[C@H](O)[C@H]1OC(=O)C(O)=C1O` [ASCORBYL PALMITATE], the IC50 came out at 57 µM in test [4] and 4.2 µM in test [5].

Regarding `O=C(Cc1ccc(-c2ccccc2)cc1)OC[C@H](O)[C@H]1OC(=O)C(O)=C1O`, the IC50 in [4] came to 2010 µM; in test [5], 358 µM.

On to `CCCCCCCCCCCC(=O)OC[C@H](O)[C@H]1OC(=O)C(O)=C1O`, for which the IC50 in [4] came out at 208 µM; in test [5] it was 47 µM.

Regarding `O=C(CCCCCOc1ccccc1)OC[C@H](O)[C@H]1OC(=O)C(O)=C1O`, the outcome in test [6] was inactive. Besides, in [5], the IC50 is 717 µM.

In test [9], `CC(C)(C)C(=O)OC[C@H](O)[C@H]1OC(=O)C(O)=C1O` returned an inhibition of 43%. For the same compound, in test [10], the outcome was inactive.

For the compound `CCCCCCCCCCC(=O)OC[C@H](O)[C@H]1OC(=O)C(O)=C1O`, the figures for the IC50 in [4] and in [5] were 580 µM and 72 µM, respectively.

With `O=C(CCCCCOc1ccc(OCc2ccccc2)cc1)OC[C@H](O)[C@H]1OC(=O)C(O)=C1O`, the 50% inhibitory concentration (IC50) was found to be 210 µM in test [4] and 76 µM in test [5].

Consider `CCCCCCCCCCCCCC(=O)OC[C@H](O)[C@H]1OC(=O)C(O)=C1O`, for which the results for the IC50 in test [4] and in [5] were 71 µM and 8.4 µM, respectively.

With `CCCCCC(=O)OC[C@H](O)[C@H]1OC(=O)C(O)=C1O`, the result in test [6] was inactive. Further, inhibition in test [5] was half-maximal at 475 µM (IC50).

Take `O=C1O[C@H]([C@@H](O)CO)C(O)=C1O` [ASCORBIC ACID]: the IC50 worked out at 5800 µM in test [11] and 6100 µM in test [5]. For the same compound, the result in [12] was inactive.

With `O=C(CCCCCOCc1ccc(-c2ccccc2)cc1)OC[C@H](O)[C@H]1OC(=O)C(O)=C1O`, the concentration for half-maximal inhibition (IC50) in test [4] was 543 µM; in [5] it was 102 µM.

As to `O=C(CCCCCCCCCCOc1ccccc1)OC[C@H](O)[C@H]1OC(=O)C(O)=C1O`, the 50% inhibitory concentration (IC50) in test [4] came out at 105 µM; in test [5], 31 µM.

Turning to `O=C(CCCCCOCc1ccccc1)OC[C@H](O)[C@H]1OC(=O)C(O)=C1O`, the result in test [6] was inactive. In addition, the half-inhibitory concentration (IC50) in test [5] stood at 437 µM.

Turning to `COC1=C(OC)[C@@H]([C@@H](O)CO)OC1=O`, the outcome in test [8] and in test [13] was inactive.

Turning to `CCCCCCCCCCCCCCCC(=O)OC[C@H](O)[C@H]1OC(=O)C(OCc2ccccc2)=C1OCc1ccccc1`, the outcome in test [1] and in test [14] was inactive.

On to `O=C1O[C@H]([C@@H](O)COC(=O)c2ccccc2)C(O)=C1O`, for which the inhibition in test [15] was 33%. Also, in test [5], the IC50 was 132 µM.

As to `O=C(CCCCCCCCCCOc1ccc(-c2ccccc2)cc1)OC[C@H](O)[C@H]1OC(=O)C(O)=C1O`, the IC50 turned out to be 37 µM in test [4] and 7.5 µM in [5].

Regarding `CCCCCCCCCCCCCCCCCC(=O)OC[C@H](O)[C@H]1OC(=O)C(O)=C1O` [ASCORBYL STEARATE], the figures for the IC50 in test [4] and in [5] were 39 µM and 0.9 µM, respectively.

Consider `CCCCCCCC(=O)OC[C@H](O)[C@H]1OC(=O)C(O)=C1O`, for which, in [6], the result was inactive. For the same compound, in test [5], the IC50 was 772 µM.

As to `O=C1O[C@H]([C@@H](O)CO)C(OCc2ccccc2)=C1OCc1ccccc1`, 355 µM corresponded to half-maximal inhibition in test [5] (IC50). Further, the outcome in test [8] was inactive.

Source of the values: ChEMBL document CHEMBL1137250, “Novel 6-O-acylated vitamin C derivatives as hyaluronidase inhibitors with selectivity for bacterial lyases” (Bioorg Med Chem Lett, 2006).
